According to PMC10732151, “1,4,7-Triazacyclononane-Based Chelators for the Complexation of [^186Re]Re- and [^99mTc]Tc-Tricarbonyl Cores” (Inorganic Chemistry, 2023):

Experiments:
Solubility (qualitative) = format: physicochemical
[1] = Storage stability of chelators and nonradioactive Re complexes; format: physicochemical; conditions: for hydrolysis observed on storage: under dry conditions at RT for 3 months
[2] = In vitro radiocomplex stability in PBS buffer with no challenger, L-cysteine or L-histidine; format: physicochemical; conditions: 37 °C
Experimental: Radiocomplex stability testing was carried out in PBS buffer (350–400 μL) with either no challenger or L-cysteine (50 μL, 10 mM) or L-histidine (50 μL, 10 mM) as the challenger. All stability tests also contained ascorbic acid (50 μL, 1 mg/mL in PBS, pH 7) as a radioprotectant. HPLC-purified radiocomplexes ([^99mTc]Tc, 50 μL, 3.7–5.6 MBq, 100–150 μCi; [^186Re]Re, 50 μL, 1.9–3.7 MBq, 50–100 μCi) were added to the stability testing solutions and incubated at 37 °C. Aliquots of each solution were taken at 1, 4, and 24 h, and the stability of the complex was determined by radio-HPLC (Methods 1 and 3) or radio-TLC (Developer 1). An additional stability time point of 48 h was taken for the [^186Re]Re complexes. The formation of colloidal [^99mTc]TcO2 or [^186Re]ReO2 was monitored at each time point by radio-TLC (Developers 1 and 2).

[3] = Radiocomplex stability in rat serum; format: in vitro ADME; conditions: 37 °C
Experimental: The radiocomplex stability was also tested in rat serum. HPLC-purified radiocomplexes ([^99mTc]Tc, 50 μL, 7.4–11.1 MBq, 200–300 μCi; [^186Re]Re, 50 μL, 3.0–3.7 MBq, 80–100 μCi) were added to solutions of rat serum (400 μL, Innovative-grade U.S. Origin Sprague–Dawley Rat Serum, Innovative Research, Novi, MI) and ascorbic acid (50 μL, 1 mg/mL in PBS, pH 7). The rat serum mixtures were incubated at 37 °C. Aliquots (100–300 μL) were taken at 1, 4, and 24 h for all radiocomplexes and also at 48 h for the [^186Re]Re complexes. The rat serum aliquots were added to a 4 times volume of acetonitrile to precipitate the rat serum proteins. The solutions were vortexed for 1 min and centrifuged for 10 min. The supernatant was carefully removed, and the pellet was washed with another portion of acetonitrile (100–500 μL). The solution was again vortexed and centrifuged, and the supernatant was removed. The activities in the combined supernatants (containing radiocomplex not bound to proteins) and the pellet (containing radiocomplex bound to proteins) were measured to determine the percentage of nonspecific protein binding for each radiocomplex. Finally, the solvent was removed from the supernatant under a stream of nitrogen, and the stability of the radiocomplexes was determined by radio-HPLC (Methods 1 and 3) after reconstitution in PBS (1 mM, pH 7.4). The formation of colloidal [^99mTc]TcO2 or [^186Re]ReO2 was also monitored at each time point by radio-TLC (Developers 1 and 2).

For `CCOC(=O)CN1CCN(CC(=O)O)CCN(CC(=O)NCc2ccccc2)CC1` [Chelator 8, TACN-benzylamide Acid Ethyl Ester], the “solubility (solvents in which soluble)” value (Solubility (qualitative)) was “soluble in ethanol and acetonitrile”.
In the case of “fac-[Re(CO)3(TACN-benzylamide methyl ester)]^+ [Re-5]”, the “hydrolysis observed on storage” value [1] was less than 5%.
With `COC(=O)CN1CCN(CC(=O)O)CCN(CC(=O)NCc2ccccc2)CC1.O=[C]=[186Re+](=[C]=O)=[C]=O` [[^186Re]Re-7] the “stability in PBS, L-cysteine, and L-histidine” value (from here on “stability in PBS, L-cysteine”) ([2]; through/after 48 h) was greater than 94% and the “stability in rat serum” value ([3]; 48 h) was 38%.
In the case of `CCOC(=O)CN1CCN(CC(=O)NCc2ccccc2)CCN(CC(=O)OCC)CC1.O=[C]=[99Tc+](=[C]=O)=[C]=O` [[^99mTc]Tc-6], the “stability in PBS, L-cysteine” value ([2]; through 4 h) was greater than 90%, the “stability in PBS, L-cysteine” value ([2]; through 24 h) was greater than 79% and the “stability in rat serum” value ([3]; 24 h) was no more than 2%.
With `CCOC(=O)CN1CCN(CC(=O)O)CCN(CC(=O)NCc2ccccc2)CC1.O=[C]=[186Re+](=[C]=O)=[C]=O` [[^186Re]Re-8] the “stability in PBS, L-cysteine” value ([2]; through/after 48 h) was greater than 94% and the “stability in rat serum” value ([3]; 48 h) was 42%.
With `CCOC(=O)CN1CCN(CC(=O)NCc2ccccc2)CCN(CC(=O)OCC)CC1.O=[C]=[186Re+](=[C]=O)=[C]=O` [[^186Re]Re-6] the “stability in PBS, L-cysteine” value ([2]; through 4 h) was greater than 95%, the “stability in PBS, L-cysteine” value ([2]; through/after 48 h) was greater than 76% and the “stability in rat serum” value ([3]; 48 h) was no more than 2%.
For `O=C(CN1CCNCCNCC1)NCc1ccccc1` [Chelator 3, N-Benzyl-2-(1,4,7-triazonan-1-yl)acetamide], the “solubility (solvents in which soluble)” value (Solubility (qualitative)) was “soluble in water, methanol, and acetonitrile”.
For `COC(=O)CN1CCN(CC(=O)NCc2ccccc2)CCN(CC(=O)OC)CC1.O=[C]=[186Re+](=[C]=O)=[C]=O` [[^186Re]Re-5], the “stability in PBS, L-cysteine” value ([2]; through 4 h) was greater than 95%, the “stability in PBS, L-cysteine” value ([2]; through/after 48 h) was greater than 76% and the “stability in rat serum” value ([3]; 48 h) was 4 ± 1%. For the same compound, the “stability in rat serum” value ([3]; at 1 h) was 88 ± 1%.
With “fac-[Re(CO)3(TACN-benzylamide)]^+ [Re-3]” the “solubility (solvents in which soluble)” value (Solubility (qualitative)) was “soluble in water” and the “time stable on storage” value ([1]; stored under dry, dark conditions at RT) was 1 month.
With `COC(=O)CN1CCN(CC(=O)NCc2ccccc2)CCN(CC(=O)OC)CC1.O=[C]=[99Tc+](=[C]=O)=[C]=O` [[^99mTc]Tc-5] the “stability in PBS, L-cysteine” value ([2]; through 4 h) was greater than 90%, the “stability in PBS, L-cysteine” value ([2]; through 24 h) was greater than 79% and the “stability in rat serum” value ([3]; 24 h) was 32 ± 10%. The “stability in rat serum” value ([3]; at 1 h) was 94 ± 1%.
In the case of `CCOC(=O)CN1CCN(CC(=O)O)CCN(CC(=O)NCc2ccccc2)CC1.O=[C]=[99Tc+](=[C]=O)=[C]=O` [[^99mTc]Tc-8], the “stability in PBS, L-cysteine” value ([2]; through 24 h) was 100% and the “stability in rat serum” value ([3]; 24 h) was greater than 60%.
With `COC(=O)CN1CCN(CC(=O)NCc2ccccc2)CCN(CC(=O)OC)CC1` [Chelator 5, TACN-benzylamide Methyl Ester] the “solubility (solvents in which soluble)” value (Solubility (qualitative)) was “soluble in methanol and acetonitrile” and the “time stable on storage” value ([1]; stored in a methanol solution, afterwards ester hydrolysis observed) was “up to 1 week”.
With `O=C(O)CN1CCN(CC(=O)O)CCN(CC(=O)NCc2ccccc2)CC1` [Chelator 4, TACN-benzylamide Acid] the “solubility (solvents in which soluble)” value (Solubility (qualitative)) was “soluble in water, methanol, and acetonitrile” and the “time stable on storage” value ([1]; at RT in an aqueous solution, in words) was “several months”.
For `COC(=O)CN1CCN(CC(=O)O)CCN(CC(=O)NCc2ccccc2)CC1` [Chelator 7, TACN-benzylamide Acid Methyl Ester], the “solubility (solvents in which soluble)” value (Solubility (qualitative)) was “soluble in methanol, ethanol, and water”.
With `COC(=O)CN1CCN(CC(=O)O)CCN(CC(=O)NCc2ccccc2)CC1.O=[C]=[99Tc+](=[C]=O)=[C]=O` [[^99mTc]Tc-7] the “stability in PBS, L-cysteine” value ([2]; through 24 h) was 100% and the “stability in rat serum” value ([3]; 24 h) was greater than 60%.
In the case of `CCOC(=O)CN1CCN(CC(=O)NCc2ccccc2)CCN(CC(=O)OCC)CC1` [Chelator 6, TACN-benzylamide Ethyl Ester], the “solubility (solvents in which soluble)” value (Solubility (qualitative)) was “soluble in ethanol and acetonitrile” and the “time stable on storage” value ([1]; stored in an ethanol solution) was “up to 1 week”.
With “fac-[Re(CO)3(TACN-benzylamide acid)]^+ [Re-4]” the “solubility (solvents in which soluble)” value (Solubility (qualitative)) was “soluble in water and methanol” and the “time stable on storage” value ([1]; stored under dry conditions, in words) was “several months”.
For `CCOC(=O)C[N+]12CC[N+]3(CC(=O)NCc4ccccc4)CC[N+](CC(=O)OCC)(CC1)[Re-2]32.[C-]#[O+].[C-]#[O+].[C-]#[O+]` (stereo not shown) [Re-6, fac-[Re(CO)3(TACN-benzylamideethyl ester)]^+], the “hydrolysis observed on storage” value [1] was “no hydrolysis observed”.
